We go through 1 compound from patent US7642261B2, “Use of 1-[4-(5-cyanoindol-3-yl)butyl]-4-(2-carbamoyl-benzofuran-5-yl)-piperazine and its physiologically acceptable salts” (Merck Patent GmbH, priority 2002, dated 2010).

Format in all cases: in vivo
The test system of experiment [1] is rats. The experiment in a line: Models for anxiety associated with posttraumatic stress (cat stressor; hole board, elevated plus maze, acoustic startle). Particulars: given after (acute treatment) and before (prophylactic treatment) the cat stressor. An excerpt:
Animal models of anxiety associated with posttraumatic stress in rats utilize the long-lasting behavioural changes induced by exposure to a native stressor. The therapeutic effects of a compound effective for the acute treatment of anxiety associated with posttraumatic stress are modelled by administration of the compound after exposure to the stressor. The therapeutic effects of a compound effective for the prophylactic treatment of anxiety associated with posttraumatic stress are modelled by administration of the compound before exposure to the stressor. Amongst the several behavioral test procedures, the following is most validated [R. E. Adamec and T. Shallow, Physiology Behavior, 1993, 54: 101-109; R. E. Adamec et al., Behav. Neurosci. 1997, 111: 435-449]. […] The hole board consists of a box (60 cm×60 cm) with four evenly spaced holes; the number of poking its head into a hole is counted for 5 minutes. […] The rat is placed in the centre of the arms, and the frequency of attempts to enter an open arm (risk assessment) as well as the time spent on the open and closed arms are measured. In the acoustic startle test, the rat is placed in a plexiglass cylinder, and a series of 20 white noise bursts of 120 dB out of a background noise of 60 dB is applied, and the latency to and the peak startle amplitude are measured. […]

Experiment [2] deals with mice. The experiment is described as follows: Neophobia model: unfamiliar food in a novel environment. The settings on record: mice deprived from food for 18 h, oral application, 3 mg/kg. On the procedure: In a typical model for neophobia, mice deprived from food for 18 h are given access to unfamiliar food in a novel environment [P. Soubrie at al., Psychopharmacologica, 1975, 45: 203-210]. 1-[4-(5-cyanoindol-3-yl)butyl]-4-(2-carbamoyl-benzofuran-5-yl)-piperazine or one of its physiologically acceptable salts, in particular 1-[4-(5-cyanoindol-3-yl)butyl]-4-(2-carbamoyl-benzofuran-5-yl)-piperazine hydrochloride, following oral application increased food intake by 21% at the dose of 3 mg/kg.

Experiment [3] deals with rats. The experiment is described as follows: Passive Avoidance test with scopolamine (model for dementia). Particulars: 10 mg/kg p.o., compared to untreated rats. An excerpt:
Typical models for dementia, Alzheimer's disease and multi-infarct are the Passive Avoidance test in rats [S. D. Glick and B. Zimmerberg, Behav. Biol., 1972, 7: 245-254; D. K. Rush, Behav. Neural Biol., 1988, 50: 255-274] and the testing of memory functions in the Morris Water Maze in aged rats [R. Morris, J. Neurosci. Methods, 1984, 11: 47-60, F. H. Gage et al. Neurobiol. Aging. 1984, 5: 43-48].
For the Passive Avoidance test, the apparatus is a runway separated from a dark compartment by a small door. The amnestic drug scopolamine is administered before the animal is submitted to an aquisition trial: the rat is placed on the entry of the runway opposite to the dark compartment, the latency to enter the dark compartment is recorded, and once the rat has entered the dark compartment, the door is closed and a foot schock is administered via the gridfloor. A retention trial is performed 48 h later identical to the aquisition trial (without scopolamine) and the latency to enter the dark compartment recorded again. […]

The nature of experiment [4]: Intradermal formalin test. Particulars: 10 mg/kg p.o. On the procedure:
Rapid procedures to test pain-relieving properties of drugs are the abdominal constriction (writhing) test according to E. Siegmund et all., Proc. Soc. Exp. Biol. Med. 1957, 95: 729-731 and the intradermal formalin test according to S. Hunskaar et al., J. Neurosci. Meth. 1985, 14: 69-76. For example, 1-[4-(5-cyanoindol-3-y1)butyl]-4-(2-carbamoyl-benzofuran-5-yl)-piperazine hydrochloride at 30 mg/kg p.c. reduced abdominal contrictions by 82%, and 10 mg/kg p.o. reduced the formalin-induced pain response by 79%.

Each structure is given as a SMILES string.

For the compound `Cl.N#Cc1ccc2[nH]cc(CCCCN3CCN(c4ccc5oc(C(N)=O)cc5c4)CC3)c2c1` [1-[4-(5-cyanoindol-3-yl)butyl]-4-(2-carbamoyl-benzofuran-5-yl)-piperazine hydrochloride], the “effect in models for anxiety associated with posttraumatic stress” value in experiment [1] was “effective”. For the same compound, the “increase of food intake” value in experiment [2] worked out at 21%. Besides, the “increase of latency to enter the dark compartment in the first retention trial” value in experiment [3] amounted to 78%. The “reduction of formalin-induced pain response” value in experiment [4] was determined as 79%.
